Values belong to the compound of their own block, whether it stands above or below them.
Legend:
PMN infiltration [1] = experiment: Zymosan A-induced peritonitis; assay type: in vivo, FVB mice; details: for inhibition of PMN/leukocyte infiltration: i.v. bolus before zymosan A, lavage at 2 h
Experimental: (§1) FIG. 5 depicts Bioimpact properties of omega-3-derived Resolvins. A) Human glioma cells: Inhibition of TNF-stimulated IL-1β transcripts DBTRG-05MG cells 10^6/ml were stimulated with 50 ng/ml of human recombinant TNFα for 16 hours to induce expression of IL-1β transcripts. Concentration dependence with COX-2 products: 17-HDHA (n), 13-HDHA (l)and di-/tri-HDHA (n). […] (insets) Results are representative of RT-PCR gels of MG cells exposed to 100 nM of 13-HDHA or 17-HDHA and graphed after normalization of the IL-1β transcripts using GAPDH. B) Influence of eicosanoids and docosanoids on fMLP-induced neutrophil migration across micovascular endothelial monolayers Neutrophils (1×10^6 cells/monolayer) were exposed to vehicle containing buffer, or indicated concentrations of aspirin-triggered LXA4 analog (closed diamonds) 5S,12,18R-triHEPE (closed squares), 17R-HDHA (closed circles) or 13-HDHA (closed triangles) for 15 minutes at 37° C. Neutrophils were then layered on HMVEC monolayers and stimulated to transmigrate by a 10^−8 M fMLP gradient for 1 hr at 37° C. Transmigration was assessed by quantitation of the neutrophil marker myeloperoxidase. Results are presented as mean±SEM number of PMN (n=8-12 monolayers per condition). C) Reduction of PMN in murine peritonitis and skin pouch peritonitis: Compounds (100 ng in 120 μL sterile saline) were injected by intravenous bolus injection into the mouse tail vein and followed by 1 ml zymosan A (1 mg/ml) into the peritoneum. Peritoneal lavages were collected (2 h) and cell types were enumerated.
Human PMN transendothelial migration was quantitated by monitoring myeloperoxidase (MPO) an azurophilic granule marker as in (34, 37). Inflammatory exudates were initiated with intrapouch injection of recombinant mouse TNFα (100 ng/pouch; R&D Systems) into dorsal air pouches (10) of 6-8 wk male FVB mice fed laboratory rodent diet 5001 (Lab Diet, Purina Mills) containing less than 0.25% arachidonic acid, 1.49% EPA and 1.86% DHA followed by ASA (500 μg) at 3.5 h and 300 μg DHA/pouch at 4 h post-TNFα injection. At 6 h (within the resolution phase), pouches were lavaged (3 ml saline) and exudate cells were enumerated Inhibition of TNFα stimulated (100 ng/pouch) PMN infiltration with i.v. tail injection of either 17R-HDHA (as prepared with COX-2 vide infra), 5S,12,18R-HEPE, or a 15-epi-LXA4 analog were determined with pouch lavages taken at 4 h. Peritonitis was performed using 6 to 8-week-old FVB male mice (Charles River Laboratories) fed laboratory Rodent Diet 5001 (Purina Mills) that were anesthetized with isoflurane, and compounds to be tested (125 μl) were administered intravenously. Zymosan A in 1 ml (1 mg/ml) was injected ˜1-1.5 min later in the peritoneum. Each test compound (100 ng/incubation, i.e. 17R-HDHA in ethanol) or vehicle alone was suspended in ˜5 μl and mixed in sterile saline 120 μl. Two hours after the intraperitoneal injections, and in accordance with the Harvard Medical Area Standing Committee on Animals protocol #02570, mice were euthanized and peritoneal lavages rapidly collected for enumeration.
Peritonitis was induced in 6 to 8 week old male FVB mice by peritoneal injection of 1 mg Zymosan A. Compounds 4,17S and 10,17S-diHDHA were injected by intravenous bolus injection, 1.5 minutes before Zymosan A treatment. Two hours after induction of peritonitis, rapid peritoneal lavages were collected and cell type enumeration was performed.

PMN infiltration [2] = experiment: Zymosan A-induced peritonitis; assay type: in vivo, FVB mice; details: dose increased to 200 ng, intravenous bolus
leukotrienes [3] = experiment: Leukotriene formation in murine exudates; assay type: in vivo; details: n=4, not shown
leukotrienes [4] = experiment: Leukotriene formation by human PMN; assay type: cell-based; details: in vitro, n=4, not shown
human PMN = experiment: fMLP-induced neutrophil migration across microvascular endothelial monolayers (MPO); assay type: cell-based; details: nM range; 10^-8 M fMLP gradient, 1 hr
Experimental: FIG. 5 depicts Bioimpact properties of omega-3-derived Resolvins. A) Human glioma cells: Inhibition of TNF-stimulated IL-1β transcripts DBTRG-05MG cells 10^6/ml were stimulated with 50 ng/ml of human recombinant TNFα for 16 hours to induce expression of IL-1β transcripts. Concentration dependence with COX-2 products: 17-HDHA (n), 13-HDHA (l)and di-/tri-HDHA (n). […] (insets) Results are representative of RT-PCR gels of MG cells exposed to 100 nM of 13-HDHA or 17-HDHA and graphed after normalization of the IL-1β transcripts using GAPDH. […] Transmigration was assessed by quantitation of the neutrophil marker myeloperoxidase. […]
Human PMN transendothelial migration was quantitated by monitoring myeloperoxidase (MPO) an azurophilic granule marker as in (34, 37). […] At 6 h (within the resolution phase), pouches were lavaged (3 ml saline) and exudate cells were enumerated Inhibition of TNFα stimulated (100 ng/pouch) PMN infiltration with i.v. tail injection of either 17R-HDHA (as prepared with COX-2 vide infra), 5S,12,18R-HEPE, or a 15-epi-LXA4 analog were determined with pouch lavages taken at 4 h. […]

leukocyte infiltration = experiment: TNFα-induced dorsal air pouch; assay type: in vivo, FVB mice; details: i.v. or local (intrapouch) administration, lavage at 4 h
[5] = system: IL-1β transcripts in DBTRG-05MG cells; experiment: Inhibition of TNF-stimulated IL-1β transcripts (RT-PCR); assay type: cell-based, human; details: Homo sapiens, DBTRG-05MG; 50 ng/ml TNFα, 16 h; read-out: IC50, inhibition of TNFα-induced IL-1β transcripts / cytokine expression
Experimental: as §1, with “C) Reduction of PMN in murine peritonitis and skin pouch peritonitis: Compounds (100 ng in 120 μL sterile saline) were injected by intravenous bolus injection into the mouse tail vein and followed by 1 ml zymosan A (1 mg/ml) into the peritoneum. Peritoneal lavages were collected (2 h) and cell types were enumerated.” left out
Human glioma cells DBTRG-05MG cells (ATCC) were cultured as recommended by ATCC. […] Results were analyzed using the NIH Image program (http://rsb.info.nih.gov/nih-image).

human recombinant COX-2 = biological target: T1, human recombinant COX-2 (Homo sapiens, UniProt P35354); experiment: Impact of NSAIDs on COX-2 conversion of DHA; assay type: biochemical
T1 construct: made in house; host or cells: Sf9 insect cells (microsomal fractions)
T1 sequence (P35354 18-604): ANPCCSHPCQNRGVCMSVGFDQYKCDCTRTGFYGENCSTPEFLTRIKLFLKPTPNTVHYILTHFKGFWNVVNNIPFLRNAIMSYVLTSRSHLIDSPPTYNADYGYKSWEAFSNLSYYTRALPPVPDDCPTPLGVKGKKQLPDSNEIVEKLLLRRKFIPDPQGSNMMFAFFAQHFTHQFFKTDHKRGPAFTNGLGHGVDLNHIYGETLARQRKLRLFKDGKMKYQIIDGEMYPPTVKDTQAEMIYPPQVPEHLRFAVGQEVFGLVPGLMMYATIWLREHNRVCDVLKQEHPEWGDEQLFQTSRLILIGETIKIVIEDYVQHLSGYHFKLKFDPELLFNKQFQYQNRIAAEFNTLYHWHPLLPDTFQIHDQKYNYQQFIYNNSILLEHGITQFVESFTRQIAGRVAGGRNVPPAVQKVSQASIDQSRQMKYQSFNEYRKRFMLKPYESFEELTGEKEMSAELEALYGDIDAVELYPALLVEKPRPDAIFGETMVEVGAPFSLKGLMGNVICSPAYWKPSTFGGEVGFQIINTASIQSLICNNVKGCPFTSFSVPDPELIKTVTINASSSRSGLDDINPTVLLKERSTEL
Experimental: (§2) Human recombinant COX-2 was overexpressed in Sf9 insect cells (ATCC). The microsomal fractions (˜8 μl) were suspended in Tris (100 mM, pH 8.0) as in (35). ASA was incubated (˜2 mM, 37° C., 30 min) with COX-2 before addition of DHA (10 μM), or in some experiments [1-^14C]-labeled DHA (from American Radiolabeled Chemicals, Inc.), and conversions were monitored in parallel using [1^−14C]-labeled C20:4 (with ASA) (as in FIG. 2; also see text).
(§3) Incubations were extracted with deuterium-labeled internal standards (15-HETE and C20:4) for LC-MS-MS analysis as in (33) using a Finnigan LCQ liquid chromatography ion trap tandem mass spectrometer (San Jose, Calif.) equipped with a LUNA C18-2 (150×2 mm×5 μm or 100×2 mm×5 μm) column and a rapid spectra scanning UV diode array detector that monitored UV absorbance ˜0.2 min prior to samples entering the MS-MS. All intact cell incubations and in vivo exudates were stopped with 2 ml cold methanol and kept at −80° C. for >30 minutes. Samples were extracted using C18 solid phase extraction and analyzed using GC-MS (see Table 2) (Hewlett-Packard), thin layer chromatography or tandem liquid chromatography-mass spectrometry (LC-MS-MS). Also, a Chiralcel OB-H column (4.6×250 mm; J. T. Baker) was used to determine R and S alcohol configurations of monohydroxy-PUFA using isocratic mobile phase (hexane:isopropanol; 97.5:2.5, vol:vol, with a 0.6 ml/min flow rate). Detailed procedures for isolation, quantitation and structural determination of lipid-derived mediators were recently reported (36) and used here essentially as reported for elucidation of novel products.
Results are the mean±SEM, n=3. Products were extracted, identified, and quantitated using deuterium internal standards and LC-MS-MS (see Methods).

[6] = system: thromboxane and prostanoids; experiment: Thromboxane and prostanoid production in air pouch exudates; assay type: in vivo, FVB mice; details: ASA 500 μg per pouch
Source text: It is noteworthy that the Lab Diet 5001 used to feed these mice contained 1.86% DHA and 1.49% EPA with <0.25% arachidonic acid (Purina Mills).

ASA-acetylated COX-2 = biological target: T2, ASA-acetylated COX-2 (Homo sapiens, UniProt P35354); experiment: Substrate conversion by ASA-acetylated COX-2; assay type: biochemical; details: C20:4 to 15R-HETE, DHA to 17R-HDHA; mean±S.E.M., n=3
T2 construct: made in house; host or cells: Sf9 insect cells (microsomal fractions), then treated with about 2 mM ASA
T2 sequence (P35354 18-604): T1 sequence (P35354 18-604)
Experimental: as §2
as §3, with “Also, a Chiralcel OB-H column (4.6×250 mm; J. T. Baker) was used to determine R and S alcohol configurations of monohydroxy-PUFA using isocratic mobile phase (hexane:isopropanol; 97.5:2.5, vol:vol, with a 0.6 ml/min flow rate).” left out

Structure (SMILES): CCC=CCC(O)C=CC=CCC=CCC=CC=CC(O)CCC(=O)O (stereo not drawn) [4,17S-diHDHA]
- potency relative to comparator at equal dose (PMN infiltration [1]; PMN/leukocyte infiltration, FIG. 16 and FIG. 18): approximately half as potent as 10,17-docosatriene
- inhibition of PMN/leukocyte infiltration (PMN infiltration [1]): dose-dependent inhibition
- effectiveness relative to 10,17-docosatriene (PMN infiltration [2]): essentially equally effective

- IC50 [5]: ~0.05 nM
Structure (SMILES): CC/C=C\CC(O)/C=C/C=C\C/C=C\C/C=C\C/C=C\CCC(=O)O (stereo not drawn) [17R-HDHA, 17-hydroxy-docosa-4Z,7Z,10Z,13Z,15E,19Z-hexaenoic acid]
- inhibition of PMN/leukocyte infiltration (PMN infiltration [1]): potent inhibitor
- formation of leukotrienes (leukotrienes [3]): prevented formation of leukotrienes
- formation of leukotrienes (leukotrienes [4]): prevented formation of leukotrienes
- direct impact on PMN transmigration across endothelial monolayers (human PMN): did not directly inhibit
- regulation of PMN/leukocyte recruitment into the air pouch (leukocyte infiltration): did regulate in vivo PMN exudate cell numbers

Structure (SMILES): CC(=O)Oc1ccccc1C(=O)O [ASA, aspirin]
- % Increase of 17-HDHA (human recombinant COX-2; NSAID incubated 30 min with COX-2, ASA 2 mM, indomethacin 200 μM, acetaminophen 500 μM, NS398 100 μM, mean±SEM, n=3): 97.8 ± 2.0%
- inhibition at 2000 µM (human recombinant COX-2; read-out: % Inhibition of 13-HDHA): 85.7 ± 5.6%
- in vivo production of thromboxane and prostanoids [6]: completely inhibited

Structure (SMILES): CCCCC/C=C\C/C=C\C/C=C\C/C=C\CCCC(=O)O [C20:4, arachidonic acid]
- substrate conversion (ASA-acetylated COX-2): 67%±5%

Reference: patent US8933270B2, “Use of docasatrienes, resolvins, and their stable analogs in the treatment of airway diseases and asthma” (The Brigham and Women's Hospital, Inc., priority 2002, dated 2015)
